Measured values published in patent US20050112713A1, “Methods of using Fab I and compounds modulating Fab I activity” (Affinium Pharmaceuticals, Inc., priority 1996, published 2005).
Like-named read-outs stand apart in the source and are kept apart here.

What was measured:
[1] = target: T1, S. aureus Fab I (Staphylococcus aureus, UniProt Q6GI75); assay: Inhibition of non his tagged (native) Fab I by saturated fatty acyl CoA's, NADH consumption at 340 nm; format: biochemical; conditions: read-out: Mean IC50 (uM) (n = 2), 1 mM crotonoyl CoA and 1 mM NADH, 100 mM NaADA, pH 6.5
T1 construct: made in house; host or cells: E. coli
T1 sequence (Q6GI75 1-256): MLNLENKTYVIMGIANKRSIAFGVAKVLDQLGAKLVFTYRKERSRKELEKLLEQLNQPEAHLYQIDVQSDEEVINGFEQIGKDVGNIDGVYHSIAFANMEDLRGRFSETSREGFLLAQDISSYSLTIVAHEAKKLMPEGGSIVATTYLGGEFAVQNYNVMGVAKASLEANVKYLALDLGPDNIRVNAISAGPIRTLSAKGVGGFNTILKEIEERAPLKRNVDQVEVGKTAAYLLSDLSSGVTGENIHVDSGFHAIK
Experimental: (§1) Crotonoyl CoA was used as the substrate for Fab I and all activity measurements were based on a decrease in absorbance at 340 nm due to the utilization of NADH (FIG. 1). All assays were performed with 100 mM NaADA, pH 6.5 buffer. Acyl-CoA inhibition data was performed in the presence of 1 mM crotonoyl CoA and 1 mM NADH.

[2] = target: T1, S. aureus Fab I; assay: Kinetic characterization of native S. aureus Fab I (substrates, mode of inhibition); format: biochemical
Experimental: as §1
(§2) However, studies performed at pH 6.0-7.0 with the native enzyme illustrated a sequential mechanistic pattern and kinetic parameters resulting from these studies indicated no overt change in either magnitude or kinetic mechanism. Thus the His10 tagged Fab I behaved distinctly from native Fab I enzyme.

[3] = target: T2, E. coli Fab I (Escherichia coli, UniProt P0AEK4); conditions: cited from earlier work
T2 sequence (P0AEK4 whole entry): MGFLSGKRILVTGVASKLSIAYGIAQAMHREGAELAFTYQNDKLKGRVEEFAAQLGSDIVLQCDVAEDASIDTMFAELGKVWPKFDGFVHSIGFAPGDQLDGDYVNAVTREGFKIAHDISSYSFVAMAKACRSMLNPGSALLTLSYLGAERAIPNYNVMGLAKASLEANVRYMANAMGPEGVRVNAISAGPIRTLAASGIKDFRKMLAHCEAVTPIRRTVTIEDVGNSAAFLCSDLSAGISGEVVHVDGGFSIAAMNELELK

[4] = target: T2, E. coli Fab I; assay: Kinetic constants of E. coli Fab I for its substrates; format: biochemical
Source text: A diazaborine derivative may be used as a positive control, this should be readily available via a 2 step synthesis with publicly available starting materials using methods known in the art. Test compounds may be added to this assay to determine whether they agonize or antagonize enzymatic activity.

[5] = substrate: C/C=C/C(=O)SCCNC(=O)CCNC(=O)[C@H](O)C(C)(C)COP(=O)(O)OP(=O)(O)OC[C@H]1O[C@@H](n2cnc3c(N)ncnc32)[C@H](O)[C@@H]1OP(=O)(O)O; assay: Kinetic characterization of native S. aureus Fab I (substrates, mode of inhibition); format: biochemical, Staphylococcus aureus; conditions: other: S. aureus Fab I
Experimental: as §1, §2

Molecule: CC(=O)SCCNC(=O)CCNC(=O)[C@H](O)C(C)(C)COP(=O)(O)OP(=O)(O)OC[C@H]1O[C@@H](n2cnc3c(N)ncnc32)[C@H](O)[C@@H]1OP(=O)(O)O [Acetyl]
- IC50 [1]: > 1000 µM

Molecule: C/C=C/C(=O)SCCNC(=O)CCNC(=O)[C@H](O)C(C)(C)COP(=O)(O)OP(=O)(O)OC[C@H]1O[C@@H](n2cnc3c(N)ncnc32)[C@H](O)[C@@H]1OP(=O)(O)O [CCA, crotonoyl CoA]
- KCCA ([2]; native S. aureus Fab I): 2.5 mM
- KCCA ([3]; E. coli Fab I, Bergler et al 1994): 2.7 mM
- Km ([3]; substrate of FAB I activity assay (Bergler et al 1994)): 2700 µM

Molecule: CCCCCCCCCCCCCC(=O)SCCNC(=O)CCNC(=O)[C@H](O)C(C)(C)COP(=O)(O)OP(=O)(O)OC[C@H]1O[C@@H](n2cnc3c(N)ncnc32)[C@H](O)[C@@H]1OP(=O)(O)O [Myristoyl]
- IC50 [1]: 23.1 µM

Molecule: NC(=O)C1=CN([C@@H]2O[C@H](COP(=O)(O)OP(=O)(O)OC[C@H]3O[C@@H](n4cnc5c(N)ncnc54)[C@H](O)[C@@H]3O)[C@@H](O)[C@H]2O)C=CC1 [NADH]
- Kmapp for NADH relative to NADPH ([2]; S. aureus Fab I): approximately 30 fold
- Km ([2]; S. aureus Fab I, read-out: Km for NADH): ~410 µM
- KNADH ([2]; native S. aureus Fab I): 0.7 mM
- KiNADH ([2]; native S. aureus Fab I): 0.2 mM
- KNADH [4]: 0.01 mM
- Km ([4]; read-out: Km for NADH): 13 µM

Molecule: CCCC(=O)SCCNC(=O)CCNC(=O)[C@H](O)C(C)(C)COP(=O)(O)OP(=O)(O)OC[C@H]1O[C@@H](n2cnc3c(N)ncnc32)[C@H](O)[C@@H]1OP(=O)(O)O [n-Butyryl]
- IC50 [1]: > 1000 µM

Molecule: CCCCCCCCCC(=O)SCCNC(=O)CCNC(=O)C(O)C(C)(C)COP(=O)(O)OP(=O)(O)OC[C@H]1O[C@@H](n2cnc3c(N)ncnc32)[C@H](O)[C@@H]1OP(=O)(O)O (stereo partly drawn) [n-Decanoyl]
- IC50 [1]: 226 µM

Molecule: CCCCCC(=O)SCCNC(=O)CCNC(=O)C(O)C(C)(C)COP(=O)(O)OP(=O)(O)OC[C@H]1O[C@@H](n2cnc3c(N)ncnc32)[C@H](O)[C@@H]1OP(=O)(O)O (stereo partly drawn) [n-Hexanoyl]
- IC50 [1]: 576 µM

Molecule: CCCCCCCC(=O)SCCNC(=O)CCNC(=O)C(O)C(C)(C)COP(=O)(O)OP(=O)(O)OC[C@H]1O[C@@H](n2cnc3c(N)ncnc32)[C@H](O)[C@@H]1OP(=O)(O)O (stereo partly drawn) [n-Octanoyl]
- IC50 [1]: 248 µM

Molecule: Apo-ACP: apo acyl carrier protein, inhibitor of Fab I
- Mode of inhibition versus NADH ([2]; S. aureus Fab I): uncompetitive
- Mode of inhibition versus crotonoyl CoA ([2]; S. aureus Fab I): competitive

B1: S. aureus Fab I (Staphylococcus aureus subsp. aureus MRSA252) (protein)
chain: T1 sequence (Q6GI75 1-256)
notes: made in house; host or cells: E. coli
- Km [5]: 2500 µM
